# Test system: IL-1β production in PMA-differentiated THP-1 cells
# Assay: IL-1β production in PMA-differentiated THP-1 cells stimulated with gramicidin (hTHP-1 assay, 2% fetal bovine serum; Procedures 1-3)
# Format: cell-based, human
# Conditions: Homo sapiens, THP-1, hTHP-1 assay containing 2% fetal bovine serum, Table B2, class symbols; read-out: IC50
# Summary of the method: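 PMA-primed THP-1 cells (20 ng/ml PMA, 16-18 h) in RPMI with 2% FBS were pre-incubated with compounds for 1 h, from 100 μM downward in 3-fold steps (0.37% DMSO final), then stimulated with 5 μM gramicidin for 2 h. IL-1β in the supernatant was quantified by HTRF.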
row,SMILES,IC50
1,"CC(C)(O)c1cc(S(N)(=O)=NC(=O)Nc2c3c(c(C#N)c4c2CCC4)CCC3)nn1-c1ccccc1 (stereo not shown) [Example 490, N′-((8-cyano-1,2,3,5,6,7-hexahydro-s-indacen-4-yl)carbamoyl)-5-(2-hydroxypropan-2-yl)-1-phenyl-1H-pyrazole-3-sulfonamide]",0.2 to 1 µM
2,"CN(C)C(c1ccc(S(N)(=O)=NC(=O)Nc2c3c(cc4c2CCC4)CCC3)cc1)C(F)(F)F (stereo not shown) [Example 492, 4-(1-(Dimethylamino)-2,2,2-trifluoroethyl)-N′-((1,2,3,5,6,7-hexahydro-s-indacen-4-yl)carbamoyl)benzenesulfonimidamide]",1 to 5 µM
3,"CNCC1(c2ccc(S(N)(=O)=NC(=O)Nc3c4c(cc5c3CCC5)CCC4)c(F)c2)CC1 (stereo not shown) [Example 495, 2-Fluoro-N′-((1,2,3,5,6,7-hexahydro-s-indacen-4-yl)carbamoyl)-4-(1-((methylamino)methyl)cyclopropyl)benzenesulfonimidamide]",1 to 5 µM
4,"CC(C)(O)c1csc(S(N)(=O)=NC(=O)Nc2c3c(c(C#N)c4c2CCC4)CCC3)n1 (stereo not shown) [Example 499, N′-((8-Cyano-1,2,3,5,6,7-hexahydro-s-indacen-4-yl)carbamoyl)-4-(2-hydroxypropan-2-yl)thiazole-2-sulfonimidamide]",0.04 to 0.2 µM
5,"CN1CCN(Cc2cccc(S(N)(=O)=NC(=O)Nc3c4c(cc5c3CCC5)CCC4)c2)CC1 (stereo not shown) [Example 505, N′-((1,2,3,5,6,7-hexahydro-s-indacen-4-yl)carbamoyl)-3-((4-methylpiperazin-1-yl)methyl) benzenesulfonimidamide]",5 to 30 µM
6,"CN(C)CCN(C)Cc1cccc(S(N)(=O)=NC(=O)Nc2c3c(cc4c2CCC4)CCC3)c1 (stereo not shown) [Example 506, 3-(((2-(Dimethylamino)ethyl) (methyl)amino)methyl)-N′-((1,2,3,5,6,7-hexahydro-s-indacen-4-yl)carbamoyl)benzenesulfonimidamide]",5 to 30 µM
7,"CN(Cc1cccc(S(N)(=O)=NC(=O)Nc2c3c(cc4c2CCC4)CCC3)c1)CC1CC1 (stereo not shown) [Example 507, 3-(((Cyclopropylmethyl) (methyl)amino)methyl)-N′-((1,2,3,5,6,7-hexahydro-s-indacen-4-yl)carbamoyl)benzenesulfonimidamide]",5 to 30 µM
8,"CNCc1cccc(S(N)(=O)=NC(=O)Nc2c3c(cc4c2CCC4)CCC3)c1 (stereo not shown) [Example 508, N′-((1,2,3,5,6,7-hexahydro-s-indacen-4-yl)carbamoyl)-3-((methylamino)methyl) benzenesulfonimidamide]",5 to 30 µM
9,"CC(C)(O)c1cnc([S@](N)(=O)=NC(=O)Nc2c3c(cc4c2C(O)CC4)CCC3)s1 (stereo partly drawn) [Example 510, (R)-N′-((3-hydroxy-1,2,3,5,6,7-hexahydro-s-indacen-4-yl)carbamoyl)-5-(2-hydroxypropan-2-yl)thiazole-2-sulfonimidamide]",0.2 to 1 µM
10,"CC(C)(O)c1cnc([S@](N)(=O)=NC(=O)Nc2c3c(cc4c2CCC4O)CCC3)s1 (stereo partly drawn) [Example 512, (R)-N′-((1-hydroxy-1,2,3,5,6,7-hexahydro-s-indacen-4-yl)carbamoyl)-5-(2-hydroxypropan-2-yl)thiazole-2-sulfonimidamide]",1 to 5 µM
11,"CC(C)(O)c1ncc([S@](N)(=O)=NC(=O)Nc2cc(CCCl)cc3c2CCC3)s1 [Example 514, (R)-N′-((6-(2-chloroethyl)-2,3-dihydro-1H-inden-4-yl)carbamoyl)-2-(2-hydroxypropan-2-yl)thiazole-5-sulfonimidamide]",1 to 5 µM

# More lines, now with the values ahead:
row,IC50,SMILES
1,5 to 30 µM,"NS(=O)(=NC(=O)Nc1c2c(cc3c1CCC3)CCC2)c1ccccc1 (stereo not shown) [Example 488, N′-((1,2,3,5,6,7-hexahydro-s-indacen-4-yl)carbamoyl)benzenesulfonimidamide]"
2,5 to 30 µM,"CC(C)N(C)c1ccc(S(N)(=O)=NC(=O)Nc2c3c(cc4c2CCC4)CCC3)cc1 (stereo not shown) [Example 489, N′-((1,2,3,5,6,7-hexahydro-s-indacen-4-yl)carbamoyl)-4-(isopropyl(methyl)ammo) benzenesulfonimidamide]"
3,5 to 30 µM,"NS(=O)(=NC(=O)Nc1c2c(cc3c1CCC3)CCC2)c1ccc(OC(F)F)cc1 (stereo not shown) [Example 493, 4-(Difluoromethoxy)-N′-((1,2,3,5,6,7-hexahydro-s-indacen-4-yl)carbamoyl) benzenesulfonimidamide]"
4,0.2 to 1 µM,"CC(C)c1cc2c(cc1NC(=O)N=S(N)(=O)c1cnc(C(C)(C)O)s1)CCC2 (stereo not shown) [Example 494, 2-(2-Hydroxypropan-2-yl)-N′-((6-isopropyl-2,3-dihydro-1H-inden-5-yl)earbamoyl)thiazole-5-sulfonimidamide]"
5,1 to 5 µM,"CN(C)Cc1cnc(S(N)(=O)=NC(=O)Nc2c3c(cc4c2CCC4)CCC3)c(F)c1 (stereo not shown) [Example 497, 5-((Dimethylamino)methyl)-3-fluoro-N′-((1,2,3,5,6,7-hexahydro-s-indacen-4-yl)carbamoyl)pyridine-2-sulfonimidamide]"
6,1 to 5 µM,"NS(=O)(=NC(=O)Nc1c2c(cc3c1CCC3)CCC2)c1cccc(CN2CCOCC2)c1 (stereo not shown) [Example 503, N′-((1,2,3,5,6,7-hexahydro-s-indacen-4-yl)carbamoyl)-3-(morpholinomethyl)benzenesulfonimidamide]"
7,5 to 30 µM,COCCN(C)Cc1cccc(S(N)(=O)=NC(=O)Nc2c3c(cc4c2CCC4)CCC3)c1 (stereo not shown) [Example 504]
8,5 to 30 µM,"CCCc1c2c(c(NC(=O)N=S(N)(=O)c3cc(C(C)(C)O)n(-c4ccccc4)n3)c3c1CCC3)CCC2 (stereo not shown) [Example 513, 5-(2-hydroxypropan-2-yl)-1-phenyl-N′-((8-propyl-1,2,3,5,6,7-hexahydro-s-indacen-4-yl)carbamoyl)-1H-pyrazole-3-sulfonimidamide]"
9,0.04 to 0.2 µM,"CNCc1cc(F)c(S(N)(=O)=NC(=O)Nc2c3c(cc4c2CC4)CCC3)s1 (stereo not shown) [Example 669, 3-Fluoro-5-((methylamino)methyl)-N′-((2,4,5,6-tetrahydro-1H-cyclobuta[f]inden-3-yl)carbamoyl)thiophene-2-sulfonimidamide]"
10,0.04 to 0.2 µM,"C[C@@](O)(CN)c1ncc(S(N)(=O)=NC(=O)Nc2c3c(cc4c2CCC4)CCC3)s1 (stereo partly drawn) [Example 673, 2-((R)-1-amino-2-hydroxypropan-2-yl)-N′-((1,2,3,5,6,7-hexahydro-s-indacen-4-yl)carbamoyl)thiazole-5-sulfonimidamide]"

# Same assay, conditions: Homo sapiens, THP-1, hTHP-1 assay containing 2% fetal bovine serum, Table B2, given as bound; read-out: IC50
row,IC50,SMILES
1,> 30 µM,"CC(C)(O)c1cnc([S@@](N)(=O)=NC(=O)Nc2c3c(cc4c2CCC4O)CCC3)s1 (stereo partly drawn) [Example 509, (S)-N′-((1-hydroxy-1,2,3,5,6,7-hexahydro-s-indacen-4-yl)carbamoyl)-5-(2-hydroxypropan-2-yl)thiazole-2-sulfonimidamide]"
2,> 30 µM,"CC(C)(O)c1cnc([S@@](N)(=O)=NC(=O)Nc2c3c(cc4c2C(O)CC4)CCC3)s1 (stereo partly drawn) [Example 511, (S)-N′-((3-hydroxy-1,2,3,5,6,7-hexahydro-s-indacen-4-yl)carbamoyl)-5-(2-hydroxypropan-2-yl)thiazole-2-sulfonimidamide]"

# Same assay, conditions: hTHP-1 assay containing 2% fetal bovine serum, Table B2, class symbols; read-out: IC50
row,IC50,SMILES
1,5 to 30 µM,"NS(=O)(=NC(=O)Nc1c2c(cc3c1CCC3)CCC2)c1ccc(C2CCNC2)cc1F (stereo not shown) [Example 500, 2-Fluoro-N′-((1,2,3,5,6,7-hexahydro-s-indacen-4-yl)carbamoyl)-4-(pyrrolidin-3-yl)benzenesulfonimidamide]"
2,1 to 5 µM,"CC(O)(CO)c1cc(F)c(S(N)(=O)=NC(=O)Nc2c3c(c(C#N)c4c2CCC4)CCC3)s1 [Example 631, (R,S) and (S,S)-N′-((8-cyano-1,2,3,5,6,7-hexahydro-s-indacen-4-yl)carbamoyl)-5-(1,2-dihydroxypropan-2-yl)-3-fluorothiophene-2-sulfonimidamide]"

# Reference: US20230051589A1, “COMPOUNDS AND COMPOSITIONS FOR TREATING CONDITIONS ASSOCIATED WITH NLRP ACTIVITY” (Novartis AG, priority 2018, published 2023)
